From ChEMBL document CHEMBL1201862, “PubChem BioAssay data set” (2004)
The source made the active and inactive calls.

Experiments:
Cytochrome P450 3A4 = Cytochrome P450 3A4 (Homo sapiens, UniProt P08684);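 also: CYP3A4 tested as one member of a cytochrome P450 panel screen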
Insulin-degrading enzyme [1] = target: T1, Insulin-degrading enzyme (Homo sapiens, UniProt P14735); experiment: activators of recombinant IDE enzyme, dose response, counter-screen for IDE activator project, biochemical, fluorescence polarization (AID 588681)
T1 sequence (P14735 whole entry): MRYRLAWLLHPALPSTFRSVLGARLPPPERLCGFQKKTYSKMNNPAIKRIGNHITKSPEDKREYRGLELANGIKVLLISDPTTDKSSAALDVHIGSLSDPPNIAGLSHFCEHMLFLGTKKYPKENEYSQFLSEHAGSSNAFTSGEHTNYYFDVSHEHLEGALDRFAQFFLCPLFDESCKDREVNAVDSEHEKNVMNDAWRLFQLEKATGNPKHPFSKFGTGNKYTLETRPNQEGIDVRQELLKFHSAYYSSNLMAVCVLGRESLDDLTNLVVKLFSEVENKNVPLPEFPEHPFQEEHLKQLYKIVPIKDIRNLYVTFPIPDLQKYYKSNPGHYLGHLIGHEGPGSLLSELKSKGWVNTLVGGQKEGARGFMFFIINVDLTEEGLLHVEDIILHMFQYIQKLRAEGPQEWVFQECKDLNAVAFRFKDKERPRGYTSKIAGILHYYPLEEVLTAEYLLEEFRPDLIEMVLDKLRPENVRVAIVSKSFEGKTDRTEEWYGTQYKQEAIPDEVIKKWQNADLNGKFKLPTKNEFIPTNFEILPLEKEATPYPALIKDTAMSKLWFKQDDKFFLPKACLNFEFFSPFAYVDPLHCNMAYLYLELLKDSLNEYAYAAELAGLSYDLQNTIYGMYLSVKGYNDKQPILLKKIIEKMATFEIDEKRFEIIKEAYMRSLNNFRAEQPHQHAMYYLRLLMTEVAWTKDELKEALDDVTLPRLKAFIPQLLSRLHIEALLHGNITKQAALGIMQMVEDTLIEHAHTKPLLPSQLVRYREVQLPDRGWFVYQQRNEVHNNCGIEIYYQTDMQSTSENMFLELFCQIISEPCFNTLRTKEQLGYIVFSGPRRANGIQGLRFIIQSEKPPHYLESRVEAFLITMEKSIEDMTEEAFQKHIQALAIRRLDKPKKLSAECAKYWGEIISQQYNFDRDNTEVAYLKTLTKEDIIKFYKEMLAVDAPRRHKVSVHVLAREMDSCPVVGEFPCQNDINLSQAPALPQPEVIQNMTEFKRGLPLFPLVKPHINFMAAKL

HEK293 [2] = experiment: HEK cell cytotoxicity by LDH release, dose response, cytotoxicity control for IDE activator project, fluorescence, HEK cells (AID 588440); assay type: functional, cell-based; settings: Homo sapiens;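 also: cytotoxicity by LDH release measuring loss of membrane integrity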
Cytochrome P450 2D6 = Cytochrome P450 2D6 (Homo sapiens, UniProt P10635);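 also: CYP2D6 member of a cytochrome P450 panel assay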
HEK293 [3] = experiment: optical interference in Abeta FP readout, dose response, artefact control for IDE activator project, biochemical, fluorescence polarization (AID 588442); assay type: functional, cell-based; settings: Homo sapiens
Insulin-degrading enzyme [4] = target: T1, Insulin-degrading enzyme; experiment: activators of endogenous IDE in HEK cells, dose response, cell-based, fluorescence polarization (AID 588439); assay type: functional
Cytochrome P450 2C9 = Cytochrome P450 2C9 (Homo sapiens, UniProt P11712)
[5] = target: T2, Sentrin-specific protease 8 (Homo sapiens, UniProt Q96LD8); experiment: SENP8 protease inhibitors, SAR follow-up, biochemical, luminescence (AID 504501); assay type: functional
T2 sequence (Q96LD8 whole entry): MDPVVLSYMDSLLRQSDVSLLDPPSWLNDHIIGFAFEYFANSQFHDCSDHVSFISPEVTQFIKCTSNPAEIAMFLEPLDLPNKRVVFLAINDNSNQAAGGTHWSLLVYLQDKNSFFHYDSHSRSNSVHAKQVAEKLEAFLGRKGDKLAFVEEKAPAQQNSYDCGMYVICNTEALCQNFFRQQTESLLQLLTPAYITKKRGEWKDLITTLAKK

Caspase-3 = target: T3, Caspase-3 (Homo sapiens, UniProt P42574); experiment: SAR Analysis of small molecule inhibitors of Sentrin-specific proteases (SENPs) using a Caspase-3 Selectivity assay. [Related pubchem assays (depositor defined):AID2540, AID2599, AID434973, AID489001]; assay type: functional
T3 sequence (P42574 whole entry): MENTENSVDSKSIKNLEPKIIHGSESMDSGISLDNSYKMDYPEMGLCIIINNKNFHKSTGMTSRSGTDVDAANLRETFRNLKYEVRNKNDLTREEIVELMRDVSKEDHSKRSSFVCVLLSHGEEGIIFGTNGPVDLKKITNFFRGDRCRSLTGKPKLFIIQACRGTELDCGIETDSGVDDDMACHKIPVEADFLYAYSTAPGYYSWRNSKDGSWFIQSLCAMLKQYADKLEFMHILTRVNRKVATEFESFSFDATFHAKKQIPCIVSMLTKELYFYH

[6] = target: T4, Sentrin-specific protease 6 (Homo sapiens, UniProt Q9GZR1); experiment: SAR Analysis of small molecule inhibitors of Sentrin-specific protease 6 (SENP6) using a Luminescent assay. [Related pubchem assays (depositor defined):AID2582, AID2599]; assay type: functional
T4 sequence (Q9GZR1 whole entry): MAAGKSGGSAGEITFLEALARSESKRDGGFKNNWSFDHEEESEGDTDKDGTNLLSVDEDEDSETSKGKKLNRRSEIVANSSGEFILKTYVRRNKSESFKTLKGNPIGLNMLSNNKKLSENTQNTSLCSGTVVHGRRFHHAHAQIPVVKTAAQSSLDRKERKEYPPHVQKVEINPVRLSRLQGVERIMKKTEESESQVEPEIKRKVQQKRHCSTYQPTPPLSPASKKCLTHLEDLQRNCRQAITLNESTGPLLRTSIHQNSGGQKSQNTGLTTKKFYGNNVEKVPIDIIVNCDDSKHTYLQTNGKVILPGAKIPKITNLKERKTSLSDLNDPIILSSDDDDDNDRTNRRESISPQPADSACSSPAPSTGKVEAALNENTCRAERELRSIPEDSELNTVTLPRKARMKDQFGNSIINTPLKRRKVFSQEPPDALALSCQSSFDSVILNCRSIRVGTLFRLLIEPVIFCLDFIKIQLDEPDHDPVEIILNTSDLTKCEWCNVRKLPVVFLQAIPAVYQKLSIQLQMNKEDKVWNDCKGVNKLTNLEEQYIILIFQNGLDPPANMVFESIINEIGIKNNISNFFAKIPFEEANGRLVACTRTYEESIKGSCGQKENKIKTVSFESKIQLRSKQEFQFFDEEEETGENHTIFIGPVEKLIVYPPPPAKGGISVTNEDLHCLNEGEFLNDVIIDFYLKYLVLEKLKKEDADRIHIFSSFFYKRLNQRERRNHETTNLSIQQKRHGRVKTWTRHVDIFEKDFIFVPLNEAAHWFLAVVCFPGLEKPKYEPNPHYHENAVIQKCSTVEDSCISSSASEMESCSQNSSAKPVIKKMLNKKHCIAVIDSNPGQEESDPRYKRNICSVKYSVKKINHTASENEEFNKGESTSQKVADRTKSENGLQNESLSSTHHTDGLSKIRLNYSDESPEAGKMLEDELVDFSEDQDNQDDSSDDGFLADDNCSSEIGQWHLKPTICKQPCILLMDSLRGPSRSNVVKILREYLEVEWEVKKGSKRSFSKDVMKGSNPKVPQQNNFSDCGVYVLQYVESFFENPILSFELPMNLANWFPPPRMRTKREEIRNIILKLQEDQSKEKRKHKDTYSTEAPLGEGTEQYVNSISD

[7] = target: T5, Sentrin-specific protease 7 (Homo sapiens, UniProt Q9BQF6); experiment: SENP7 protease inhibitors, SAR follow-up, biochemical, luminescence (AID 504497); assay type: functional
T5 sequence (Q9BQF6 whole entry): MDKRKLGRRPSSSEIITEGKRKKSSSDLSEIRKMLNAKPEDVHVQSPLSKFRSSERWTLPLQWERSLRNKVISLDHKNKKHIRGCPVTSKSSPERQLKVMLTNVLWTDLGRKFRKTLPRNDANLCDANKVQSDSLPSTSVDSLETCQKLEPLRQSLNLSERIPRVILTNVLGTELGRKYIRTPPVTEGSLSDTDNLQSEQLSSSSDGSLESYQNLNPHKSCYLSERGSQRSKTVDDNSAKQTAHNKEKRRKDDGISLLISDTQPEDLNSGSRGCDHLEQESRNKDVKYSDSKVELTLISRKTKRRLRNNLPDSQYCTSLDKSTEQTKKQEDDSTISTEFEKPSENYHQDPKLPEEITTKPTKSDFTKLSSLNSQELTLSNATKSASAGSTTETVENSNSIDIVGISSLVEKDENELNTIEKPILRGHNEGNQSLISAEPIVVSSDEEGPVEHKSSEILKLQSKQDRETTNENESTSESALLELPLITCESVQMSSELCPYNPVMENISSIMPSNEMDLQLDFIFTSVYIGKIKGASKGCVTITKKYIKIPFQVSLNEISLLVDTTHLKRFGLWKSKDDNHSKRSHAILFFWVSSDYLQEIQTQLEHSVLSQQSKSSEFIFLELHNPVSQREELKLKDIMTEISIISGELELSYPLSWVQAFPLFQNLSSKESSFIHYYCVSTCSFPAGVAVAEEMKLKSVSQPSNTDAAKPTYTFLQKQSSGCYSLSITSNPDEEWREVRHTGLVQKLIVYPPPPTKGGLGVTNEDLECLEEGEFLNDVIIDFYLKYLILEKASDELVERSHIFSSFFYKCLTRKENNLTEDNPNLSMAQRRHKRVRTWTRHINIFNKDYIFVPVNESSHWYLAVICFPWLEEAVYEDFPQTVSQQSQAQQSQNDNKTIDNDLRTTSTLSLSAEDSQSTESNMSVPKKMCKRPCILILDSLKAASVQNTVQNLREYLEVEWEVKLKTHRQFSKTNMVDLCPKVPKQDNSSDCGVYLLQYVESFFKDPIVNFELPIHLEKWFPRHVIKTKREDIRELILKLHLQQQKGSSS

[8] = target: T6, Endoribonuclease toxin MazF (Escherichia coli K-12, UniProt P0AE70); experiment: fluorescent RNA oligo signal without MazF, dose response, counter-screen for MazEF activator project, biochemical, fluorescence, single-stranded RNase substrate (AID 588502); assay type: functional
T6 sequence (P0AE70 whole entry): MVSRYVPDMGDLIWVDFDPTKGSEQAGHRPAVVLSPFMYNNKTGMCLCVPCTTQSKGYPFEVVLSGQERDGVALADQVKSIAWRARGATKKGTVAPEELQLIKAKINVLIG

[9] = target: T7, RNA-binding protein pos-1 (Caenorhabditis elegans, UniProt G5EF15); experiment: inhibitors of POS-1/mex-3 RNA binding, dose response, biochemical, fluorescence polarization (AID 1964);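 also: purified POS-1 fused to maltose binding protein made in E. coli; potency of compounds blocking POS-1 binding to fluorescent RNA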
T7 sequence (G5EF15 whole entry): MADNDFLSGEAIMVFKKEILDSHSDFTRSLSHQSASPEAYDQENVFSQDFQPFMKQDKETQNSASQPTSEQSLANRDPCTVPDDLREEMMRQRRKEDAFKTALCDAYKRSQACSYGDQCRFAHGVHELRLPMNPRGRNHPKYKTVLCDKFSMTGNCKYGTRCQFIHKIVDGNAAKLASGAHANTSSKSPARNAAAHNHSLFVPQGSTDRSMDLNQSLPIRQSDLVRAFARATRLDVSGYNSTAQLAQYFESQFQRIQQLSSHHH

[10] = target: T6, Endoribonuclease toxin MazF; experiment: MazF toxin RNase activators, dose response, biochemical, fluorescence, single-stranded RNA substrate, uHTS hits (AID 588481); assay type: functional
[11] = target: T8, Zinc finger protein mex-5 (Caenorhabditis elegans, UniProt Q9XUB2); experiment: MEX-5/TCR-2 RNA interaction inhibitors, dose response, biochemical, C. elegans, fluorescence polarization (AID 1960)
T8 sequence (Q9XUB2 whole entry): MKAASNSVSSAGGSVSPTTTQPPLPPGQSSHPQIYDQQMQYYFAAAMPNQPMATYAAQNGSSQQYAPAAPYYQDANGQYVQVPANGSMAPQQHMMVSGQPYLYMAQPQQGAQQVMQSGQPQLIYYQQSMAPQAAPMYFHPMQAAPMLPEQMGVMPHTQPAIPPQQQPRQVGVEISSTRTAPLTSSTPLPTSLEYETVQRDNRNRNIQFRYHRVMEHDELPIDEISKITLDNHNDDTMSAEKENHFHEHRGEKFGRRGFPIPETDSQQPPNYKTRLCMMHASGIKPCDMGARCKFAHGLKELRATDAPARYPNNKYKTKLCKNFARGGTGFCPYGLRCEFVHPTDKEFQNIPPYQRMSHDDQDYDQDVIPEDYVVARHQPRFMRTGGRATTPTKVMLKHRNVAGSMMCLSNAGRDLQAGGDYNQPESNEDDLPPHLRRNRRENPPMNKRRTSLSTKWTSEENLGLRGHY

[12] = target: Ras and Rab interactor 1/Tyrosine-protein kinase ABL1 (Homo sapiens, UniProt P00519+Q13671); assay type: functional;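 also: biochemical TR-FRET dose-response test measuring inhibition of binding between Rin1 and Abl proteins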
[13] = cytotoxicity in HEK-293T cells, dose response, cytotoxicity control for BCR NF-kB inhibitor project, luminescence, B-cell screen hits (AID 489021); assay type: functional, cell-based;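 also: HEK-293T cells carrying an NF-kB luciferase reporter; cells exposed to compound for about 14 hours before viability readout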

Ras and Rab interactor 1/Tyrosine-protein kinase ABL1, sequence (P00519 whole entry): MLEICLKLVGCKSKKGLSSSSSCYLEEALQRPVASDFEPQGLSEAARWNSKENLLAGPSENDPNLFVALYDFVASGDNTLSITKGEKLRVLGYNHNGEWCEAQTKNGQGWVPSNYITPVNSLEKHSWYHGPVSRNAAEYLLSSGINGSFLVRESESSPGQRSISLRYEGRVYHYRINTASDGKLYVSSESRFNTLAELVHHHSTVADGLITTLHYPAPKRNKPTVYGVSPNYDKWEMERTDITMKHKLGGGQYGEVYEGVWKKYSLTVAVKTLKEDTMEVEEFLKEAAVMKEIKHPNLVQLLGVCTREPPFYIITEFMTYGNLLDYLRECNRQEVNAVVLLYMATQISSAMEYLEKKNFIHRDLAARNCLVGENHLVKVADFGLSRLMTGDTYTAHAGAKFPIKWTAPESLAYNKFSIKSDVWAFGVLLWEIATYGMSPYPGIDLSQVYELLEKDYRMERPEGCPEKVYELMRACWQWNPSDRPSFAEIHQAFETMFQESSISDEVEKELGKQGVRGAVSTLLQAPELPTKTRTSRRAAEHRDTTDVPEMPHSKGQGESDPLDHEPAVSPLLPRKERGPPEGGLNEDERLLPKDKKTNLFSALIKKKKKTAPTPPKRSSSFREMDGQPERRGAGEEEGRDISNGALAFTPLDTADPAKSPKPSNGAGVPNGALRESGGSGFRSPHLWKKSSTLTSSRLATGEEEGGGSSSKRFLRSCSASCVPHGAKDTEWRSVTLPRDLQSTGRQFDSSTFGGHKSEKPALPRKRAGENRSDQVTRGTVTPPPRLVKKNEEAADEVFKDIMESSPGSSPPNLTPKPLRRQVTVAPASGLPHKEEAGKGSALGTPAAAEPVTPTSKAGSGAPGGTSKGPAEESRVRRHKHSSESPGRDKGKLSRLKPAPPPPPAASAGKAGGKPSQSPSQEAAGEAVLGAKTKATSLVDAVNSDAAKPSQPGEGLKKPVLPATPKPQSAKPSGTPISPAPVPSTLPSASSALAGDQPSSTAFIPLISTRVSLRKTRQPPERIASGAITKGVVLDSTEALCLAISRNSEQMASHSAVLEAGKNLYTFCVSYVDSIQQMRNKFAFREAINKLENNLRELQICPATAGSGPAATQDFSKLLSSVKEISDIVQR
Ras and Rab interactor 1/Tyrosine-protein kinase ABL1, sequence (Q13671 whole entry): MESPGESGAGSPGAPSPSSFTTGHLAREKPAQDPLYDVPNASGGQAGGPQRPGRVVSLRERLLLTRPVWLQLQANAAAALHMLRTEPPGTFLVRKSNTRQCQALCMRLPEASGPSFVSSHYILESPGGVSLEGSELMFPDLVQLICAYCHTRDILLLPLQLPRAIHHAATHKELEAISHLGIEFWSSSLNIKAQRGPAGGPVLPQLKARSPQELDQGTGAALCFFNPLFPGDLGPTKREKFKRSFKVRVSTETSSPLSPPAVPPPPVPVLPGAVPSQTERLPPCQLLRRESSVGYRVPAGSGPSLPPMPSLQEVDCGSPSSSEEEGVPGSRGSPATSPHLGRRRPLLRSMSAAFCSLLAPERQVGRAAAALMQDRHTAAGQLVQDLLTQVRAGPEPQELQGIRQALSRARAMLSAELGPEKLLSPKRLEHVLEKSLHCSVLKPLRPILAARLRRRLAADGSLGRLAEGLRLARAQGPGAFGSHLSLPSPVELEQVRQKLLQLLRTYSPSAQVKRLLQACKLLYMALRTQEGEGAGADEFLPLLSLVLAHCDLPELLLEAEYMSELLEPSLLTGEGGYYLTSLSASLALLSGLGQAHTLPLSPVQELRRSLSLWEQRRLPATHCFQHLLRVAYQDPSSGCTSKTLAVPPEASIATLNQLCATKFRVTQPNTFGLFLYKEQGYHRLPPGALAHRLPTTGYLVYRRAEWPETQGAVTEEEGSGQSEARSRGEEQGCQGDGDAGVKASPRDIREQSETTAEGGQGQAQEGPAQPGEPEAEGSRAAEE
Cytochrome P450 2C9, sequence (P11712 whole entry): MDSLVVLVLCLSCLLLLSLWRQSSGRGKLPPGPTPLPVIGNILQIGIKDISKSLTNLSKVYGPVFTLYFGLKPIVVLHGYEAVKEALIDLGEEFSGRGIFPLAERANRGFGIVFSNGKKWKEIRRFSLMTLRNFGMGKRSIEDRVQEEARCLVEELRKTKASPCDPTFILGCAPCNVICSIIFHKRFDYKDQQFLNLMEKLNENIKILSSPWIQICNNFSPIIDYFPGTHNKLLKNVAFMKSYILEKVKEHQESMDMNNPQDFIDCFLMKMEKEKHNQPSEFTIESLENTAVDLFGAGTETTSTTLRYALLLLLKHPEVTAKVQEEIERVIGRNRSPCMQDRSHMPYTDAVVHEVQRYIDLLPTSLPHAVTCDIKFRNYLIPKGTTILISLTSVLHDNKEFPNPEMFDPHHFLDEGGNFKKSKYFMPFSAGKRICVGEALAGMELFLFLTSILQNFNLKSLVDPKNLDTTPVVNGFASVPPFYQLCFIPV
Cytochrome P450 3A4, sequence (P08684 whole entry): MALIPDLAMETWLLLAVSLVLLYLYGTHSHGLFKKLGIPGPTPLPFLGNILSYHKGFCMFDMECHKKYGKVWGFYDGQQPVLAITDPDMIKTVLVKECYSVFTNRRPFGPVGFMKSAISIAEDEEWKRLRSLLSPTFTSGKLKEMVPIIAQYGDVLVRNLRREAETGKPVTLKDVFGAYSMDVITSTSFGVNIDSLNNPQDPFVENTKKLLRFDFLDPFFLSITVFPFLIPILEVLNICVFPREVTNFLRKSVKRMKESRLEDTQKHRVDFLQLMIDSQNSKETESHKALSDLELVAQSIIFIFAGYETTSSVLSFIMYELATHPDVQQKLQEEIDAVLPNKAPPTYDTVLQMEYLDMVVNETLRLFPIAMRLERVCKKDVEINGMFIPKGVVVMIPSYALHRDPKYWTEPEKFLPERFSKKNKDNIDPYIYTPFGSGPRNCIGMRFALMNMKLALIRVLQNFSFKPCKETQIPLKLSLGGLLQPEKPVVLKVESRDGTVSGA
Cytochrome P450 2D6, sequence (P10635 whole entry): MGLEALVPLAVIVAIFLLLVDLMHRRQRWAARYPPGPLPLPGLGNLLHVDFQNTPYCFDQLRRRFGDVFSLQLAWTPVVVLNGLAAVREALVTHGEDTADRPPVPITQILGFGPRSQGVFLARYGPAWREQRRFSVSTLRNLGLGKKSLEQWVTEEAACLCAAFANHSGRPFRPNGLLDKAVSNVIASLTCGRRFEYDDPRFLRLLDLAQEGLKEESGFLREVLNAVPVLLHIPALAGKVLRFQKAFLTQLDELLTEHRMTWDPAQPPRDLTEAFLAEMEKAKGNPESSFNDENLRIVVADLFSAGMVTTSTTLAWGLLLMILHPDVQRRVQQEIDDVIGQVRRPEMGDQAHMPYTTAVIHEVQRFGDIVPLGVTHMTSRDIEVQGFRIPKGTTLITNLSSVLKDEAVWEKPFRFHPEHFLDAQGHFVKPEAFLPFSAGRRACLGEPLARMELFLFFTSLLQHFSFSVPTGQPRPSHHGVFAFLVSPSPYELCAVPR

| SMILES | EC50 (Insulin-degrading enzyme [1]) | IC50 (HEK293 [2]) | EC50 (HEK293 [3]) | EC50 (Insulin-degrading enzyme [4]) | EC50 [8] | EC50 [9] | EC50 [10] | EC50 [11] | also measured |
| --- | --- | --- | --- | --- | --- | --- | --- | --- | --- |
| CCCCn1nc2cc(C(=O)NCCCCc3ccccc3)ccc2c1OCC | > 54.7 µM (inactive) | > 89.2 µM (inactive) | > 54.7 µM (inactive) | 22.8 µM (inactive) | – | – | – | – | AC50 (Cytochrome P450 3A4): 6.31 µM (inconclusive); AC50 (Cytochrome P450 2D6): 3.98 µM (inconclusive); AC50 (Cytochrome P450 2C9): 31.6 µM (inconclusive) |
| Cc1cccc(C(=O)NCCN2CCOCC2)c1[N+](=O)[O-] | > 54.6 µM (inactive) | > 89.1 µM (inactive) | > 54.6 µM (inactive) | > 54.6 µM (inactive) | – | – | – | – | – |
| O=[N+]([O-])c1ccc(/N=C/c2c[nH]c3ccccc23)cc1 | – | – | – | – | – | – | – | – | IC50 [5]: > 99 µM (inactive); IC50 (Caspase-3): > 99 µM (inactive); IC50 [6]: > 99 µM (inactive); IC50 [7]: > 99 µM (inactive) |
| Cc1cccc(CN2C(=O)N/C(=C/c3ccc(C)s3)C2=O)c1 | – | – | – | – | 87.8 µM (inactive) | 27.5 µM (active) | > 99 µM (inactive) | > 300 µM (inconclusive) | – |
| CCOC(=O)c1ccc(NC(=O)COc2ccccc2CNC2CCCC2)cc1 | – | – | – | – | – | – | – | – | IC50 [12]: 12.2 µM (inactive) |
| COc1ccccc1/C=C1/SC(=S)N(CCC(=O)Nc2cccnc2)C1=O | – | – | – | – | > 99 µM (inactive) | 69.2 µM (active) | 52 µM (inactive) | 37.6 µM (inconclusive) | IC50 [13]: > 80 µM (inactive) |
